Assay results reported in PubChem BioAssay (NCI).
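Where inhibition never reached the appropriate level, the endpoint shown equals the highest concentration tested. Otherwise, values were interpolated linearly from a five-concentration, 48-hour dose response in 96-well plates. GI50 is the concentration that inhibits growth by half. TGI is the concentration that stops growth completely.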

Experiments:
Experiment in all cases: growth of human tumour cells (NCI), 48 h
786-0 renal = system: 786-0 renal
A498 renal = system: A498 renal
A549 NSCLC = system: A549 NSCLC
ACHN renal = system: ACHN renal
BT-549 breast = system: BT-549 breast
CAKI-1 renal = system: CAKI-1 renal
CCRF-CEM leukemia = system: CCRF-CEM leukemia
COLO 205 colon = system: COLO 205 colon
DU-145 prostate = system: DU-145 prostate
EKVX NSCLC = system: EKVX NSCLC
HCC-2998 colon = system: HCC-2998 colon
HCT-116 colon = system: HCT-116 colon
HCT-15 colon = system: HCT-15 colon
HL-60(TB) leukemia = system: HL-60(TB) leukemia
HOP-62 NSCLC = system: HOP-62 NSCLC
HOP-92 NSCLC = system: HOP-92 NSCLC
HS 578T breast = system: HS 578T breast
HT29 colon = system: HT29 colon
IGROV1 ovarian = system: IGROV1 ovarian
K-562 leukemia = system: K-562 leukemia
KM12 colon = system: KM12 colon
LOX IMVI melanoma = system: LOX IMVI melanoma
M14 melanoma = system: M14 melanoma
MALME-3M melanoma = system: MALME-3M melanoma
MCF7 breast = system: MCF7 breast
MDA-MB-231 breast = system: MDA-MB-231 breast
MDA-MB-435 = system: MDA-MB-435
MOLT-4 leukemia = system: MOLT-4 leukemia
NCI-H226 lung = system: NCI-H226 lung
NCI-H23 lung = system: NCI-H23 lung
NCI-H460 lung = system: NCI-H460 lung
NCI-H522 lung = system: NCI-H522 lung
NCI/ADR-RES ovarian = system: NCI/ADR-RES ovarian
OVCAR-3 ovarian = system: OVCAR-3 ovarian
OVCAR-4 ovarian = system: OVCAR-4 ovarian
OVCAR-5 ovarian = system: OVCAR-5 ovarian
OVCAR-8 ovarian = system: OVCAR-8 ovarian
PC-3 prostate = system: PC-3 prostate
RPMI-8226 leukemia = system: RPMI-8226 leukemia
RXF 393 renal = system: RXF 393 renal
SF-268 CNS = system: SF-268 CNS
SF-295 CNS = system: SF-295 CNS
SF-539 CNS = system: SF-539 CNS
SK-MEL-28 melanoma = system: SK-MEL-28 melanoma
SK-MEL-5 melanoma = system: SK-MEL-5 melanoma
SK-OV-3 ovarian = system: SK-OV-3 ovarian
SN12C renal = system: SN12C renal
SNB-19 CNS = system: SNB-19 CNS
SNB-75 CNS = system: SNB-75 CNS
SR leukemia = system: SR leukemia
SW-620 colon = system: SW-620 colon
T-47D breast = system: T-47D breast
TK-10 renal = system: TK-10 renal
U251 CNS = system: U251 CNS
UACC-257 melanoma = system: UACC-257 melanoma
UACC-62 melanoma = system: UACC-62 melanoma
UO-31 renal = system: UO-31 renal

Work on Cc1nc2ccccc2c(N)c1-c1cc(C)c2c(C)nc3ccccc3c2n1 yielded a GI50 (786-0 renal) of 1160 nM, a TGI (786-0 renal) of 2450 nM and a GI50 (A498 renal) of 1730 nM. It also gave a TGI (A498 renal) of 4110 nM, a GI50 (A549 NSCLC) of 243 nM and a TGI (A549 NSCLC) of 681 nM. The GI50 (ACHN renal) was 237 nM, the TGI (ACHN renal) was 599 nM and the GI50 (BT-549 breast) was 1050 nM. The TGI (BT-549 breast) was 2460 nM, the GI50 (CAKI-1 renal) was 1550 nM and the TGI (CAKI-1 renal) was 2940 nM. It also gave a GI50 (CCRF-CEM leukemia) of 362 nM, a TGI (CCRF-CEM leukemia) of 2120 nM and a GI50 (COLO 205 colon) of 817 nM. The TGI (COLO 205 colon) was 2250 nM, the GI50 (DU-145 prostate) was 479 nM and the TGI (DU-145 prostate) was 1670 nM. It also gave a GI50 (EKVX NSCLC) of 1610 nM, a TGI (EKVX NSCLC) of 3290 nM and a GI50 (HCC-2998 colon) of 627 nM. The TGI (HCC-2998 colon) was 1950 nM, the GI50 (HCT-116 colon) was 257 nM and the TGI (HCT-116 colon) was 728 nM. For the same compound, the GI50 (HCT-15 colon) was 216 nM, the TGI (HCT-15 colon) was 562 nM and the GI50 (HL-60(TB) leukemia) was 454 nM. The GI50 (HOP-62 NSCLC) was 1770 nM, the TGI (HOP-62 NSCLC) was 3360 nM and the GI50 (HOP-92 NSCLC) was 1460 nM. It also gave a TGI (HOP-92 NSCLC) of 3380 nM, a GI50 (HS 578T breast) of 891 nM and a GI50 (HT29 colon) of 749 nM. The TGI (HT29 colon) was 2520 nM, the GI50 (IGROV1 ovarian) was 294 nM and the TGI (IGROV1 ovarian) was 860 nM. For the same compound, the GI50 (K-562 leukemia) was 256 nM, the TGI (K-562 leukemia) was over 100000 nM and the GI50 (KM12 colon) was 785 nM. It also gave a TGI (KM12 colon) of 2150 nM, a GI50 (LOX IMVI melanoma) of 248 nM and a TGI (LOX IMVI melanoma) of 717 nM. For the same compound, the GI50 (M14 melanoma) was 1340 nM, the TGI (M14 melanoma) was 2650 nM and the GI50 (MALME-3M melanoma) was 1270 nM. It also gave a TGI (MALME-3M melanoma) of 2590 nM, a GI50 (MCF7 breast) of 675 nM and a TGI (MCF7 breast) of 2060 nM. The GI50 (MDA-MB-231 breast) was 298 nM, the TGI (MDA-MB-231 breast) was 904 nM and the GI50 (MDA-MB-435) was 1510 nM. It also gave a TGI (MDA-MB-435) of 2860 nM, a GI50 (MOLT-4 leukemia) of 540 nM and a GI50 (NCI-H226 lung) of 1440 nM. It also gave a TGI (NCI-H226 lung) of 2940 nM, a GI50 (NCI-H23 lung) of 1560 nM and a TGI (NCI-H23 lung) of 3240 nM. For the same compound, the GI50 (NCI-H460 lung) was 329 nM, the TGI (NCI-H460 lung) was 1170 nM and the GI50 (NCI-H522 lung) was 2410 nM. The TGI (NCI-H522 lung) was over 20500 nM, the GI50 (NCI/ADR-RES ovarian) was 1340 nM and the TGI (NCI/ADR-RES ovarian) was 3150 nM. It also gave a GI50 (OVCAR-3 ovarian) of 690 nM, a TGI (OVCAR-3 ovarian) of 1830 nM and a GI50 (OVCAR-4 ovarian) of 831 nM. The TGI (OVCAR-4 ovarian) was 2400 nM, the GI50 (OVCAR-5 ovarian) was 1590 nM and the TGI (OVCAR-5 ovarian) was 3060 nM. For the same compound, the GI50 (OVCAR-8 ovarian) was 1410 nM, the TGI (OVCAR-8 ovarian) was 2950 nM and the GI50 (PC-3 prostate) was 1020 nM. The TGI (PC-3 prostate) was 3100 nM, the GI50 (RPMI-8226 leukemia) was 173 nM and the TGI (RPMI-8226 leukemia) was 520 nM. For the same compound, the GI50 (RXF 393 renal) was 182 nM, the TGI (RXF 393 renal) was 737 nM and the GI50 (SF-268 CNS) was 628 nM. It also gave a TGI (SF-268 CNS) of 2080 nM, a GI50 (SF-295 CNS) of 1340 nM and a TGI (SF-295 CNS) of 2740 nM. It also gave a GI50 (SF-539 CNS) of 1310 nM, a TGI (SF-539 CNS) of 2590 nM and a GI50 (SK-MEL-28 melanoma) of 1610 nM. For the same compound, the TGI (SK-MEL-28 melanoma) was 2970 nM, the GI50 (SK-MEL-5 melanoma) was 18200 nM and the TGI (SK-MEL-5 melanoma) was over 37400 nM. It also gave a GI50 (SK-OV-3 ovarian) of 1800 nM, a TGI (SK-OV-3 ovarian) of 4720 nM and a GI50 (SN12C renal) of 1410 nM. For the same compound, the TGI (SN12C renal) was 2900 nM, the GI50 (SNB-19 CNS) was 1590 nM and the TGI (SNB-19 CNS) was 3390 nM. For the same compound, the GI50 (SNB-75 CNS) was 1520 nM, the TGI (SNB-75 CNS) was 3160 nM and the GI50 (SR leukemia) was 190 nM. For the same compound, the TGI (SR leukemia) was 2590 nM, the GI50 (SW-620 colon) was 183 nM and the TGI (SW-620 colon) was 435 nM. The GI50 (T-47D breast) was 1780 nM, the TGI (T-47D breast) was 4040 nM and the GI50 (TK-10 renal) was 1440 nM. For the same compound, the TGI (TK-10 renal) was 2780 nM, the GI50 (U251 CNS) was 288 nM and the TGI (U251 CNS) was 959 nM. It also gave a GI50 (UACC-257 melanoma) of 1790 nM, a TGI (UACC-257 melanoma) of 3290 nM and a GI50 (UACC-62 melanoma) of 1290 nM. The TGI (UACC-62 melanoma) was 2610 nM, the GI50 (UO-31 renal) was 780 nM and the TGI (UO-31 renal) was 2260 nM.
